Experimental data: patent US20260055097A9, “NRF2 PROTEIN DEGRADERS” (Ganymede Oncology, Inc., priority 2022, published 2026)
Like-named read-outs stand apart in the source and are kept apart here.

Tests used:
Nrf2 = biological target: T1, Nrf2 (Homo sapiens, UniProt Q16236); test: Nrf2 degradation in A549 HiBiT-Nrf2 cells, Nano-Glo HiBiT lytic detection (HiBiT readout); format: cell-based; parameters: host or cells: A549 HiBiT-Nrf2 cells (engineered line bought from Promega)
T1 sequence (Q16236 1-605): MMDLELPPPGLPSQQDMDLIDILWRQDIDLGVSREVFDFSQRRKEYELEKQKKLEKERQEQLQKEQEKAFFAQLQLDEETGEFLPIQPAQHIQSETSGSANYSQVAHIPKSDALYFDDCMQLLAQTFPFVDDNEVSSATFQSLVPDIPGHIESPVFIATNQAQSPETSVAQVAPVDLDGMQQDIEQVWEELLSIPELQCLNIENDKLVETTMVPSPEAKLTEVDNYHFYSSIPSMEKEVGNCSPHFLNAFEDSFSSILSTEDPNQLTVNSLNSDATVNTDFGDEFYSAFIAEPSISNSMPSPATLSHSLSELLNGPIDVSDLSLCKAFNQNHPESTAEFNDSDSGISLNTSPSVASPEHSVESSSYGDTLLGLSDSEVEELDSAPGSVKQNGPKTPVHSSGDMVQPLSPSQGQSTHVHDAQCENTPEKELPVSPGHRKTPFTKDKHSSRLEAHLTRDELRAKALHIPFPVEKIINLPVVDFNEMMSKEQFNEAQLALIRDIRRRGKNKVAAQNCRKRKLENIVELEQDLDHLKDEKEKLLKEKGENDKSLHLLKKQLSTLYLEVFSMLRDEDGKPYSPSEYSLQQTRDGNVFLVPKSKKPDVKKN
Experimental: A549 HiBiT-Nrf2 cells (Promega, Cat. No. CS3023219) were seeded into 384-well plates at cell density of 5,000 cells/well in 40 μL of cell culture medium (Ham's F-12 Nutrient Mix supplemented with 10% FBS and 1% antibiotic-antimycotic).
The next day, cells were treated with representative Compounds of the Disclosure and incubated for 6 h and 20 h at 37° C., 5% CO2. Staurosporine was used as a control.
At the end of incubation Nrf2 degradation (HiBiT readout) and cell viability (CellTiter-Glo readout) were determined. For HiBiT readout, Nano-Glo HiBiT Reagent mix (Promega, Cat. No. N3050) was added to wells, plates were incubated 2 min on an orbital shaker and incubated at room temperature in the dark for additional 30 minutes. At the end of incubation luminescence was measured using ultrasensitive luminescence mode (Envision, Perkin Elmer).

A549 = test: Cancer cell viability, A549 (CellTiter-Glo); format: cell-based; details: Homo sapiens, 72 h, A549 cells, 3 days, read-out: Cellular IC50 (μM) A549
Experimental: Representative Compounds of the Disclosure were tested in A549 (Vendor: ATCC; Cat #CCL-185; Description: lung, carcinoma) and/or LK-2 (Vendor: Riken; Cat #RCB1970; Description: lung, squamous cell carcinoma) cellular viability assays according to the following general protocol. • 1. Observed the cells under microscope. • 2. Aspirated the media and added 5 mL trypsin and incubate for 3 mins. • 3. Added 10 mL fresh media and harvested all the cells in to 15 mL tubes. • 4. Centrifuged the cells at 1000 rpm for 5 mins. • 5. Re-suspended the cells with 11 mL media and took 1 mL to determine the cell number and viability. • 6. Prepared cells suspension at 20 K/mL (A549) or 35 K/mL (LK-2) • 7. Seeded the cells into 96-well plate and incubated for overnight. • 8. […] After 3 days, took out the plates from the incubator and observed the cells under microscope. • 10. Passed a film at the bottom of the plates. • 11. Equilibrated the plate and its contents at room temperature for approximately 30 minutes. • 12. Thawed the CellTiter-Glo® Buffer and equilibrated to room temperature prior to use. • 13. Equilibrated the lyophilized CellTiter-Glo® Substrate to room temperature prior to use. • 14. Transferred 100 ml of CellTiter-Glo® Buffer into the amber bottle containing CellTiter-Glo® Substrate to reconstituted the lyophilized enzyme/substrate mixture. • 15. Mixed by gently vortexing, swirling or inverting the contents to obtain a homogeneous solution. • 16. Added 100 μL CellTiter-Glo® Reagent into each well • 17. Mixed contents for 15 minutes on an orbital shaker to induce cell lysis. • 18. Recorded luminescence with EnSpire machine. • 19. Passed the raw data into the file and analyzed the data with XLfit software.

[1] = 6 h, read-out: DC50 (nM) at 6 h
[2] = 20 h, read-out: DC50 (nM) at 20 h

SMILES | DC50 (Nrf2; [1]) | DC50 (Nrf2; [2]) | IC50 (A549)
Cc1sc(NC(=O)Cc2cccc(OCCC(C)CCNc3cccc4c3C(=O)N(C3CCC(=O)NC3=O)C4=O)c2)nc1-c1ccc2c(c1)CCN2C(=O)C1CC1 (stereo not drawn) [Cpd. No. 41, N-(4-(1-(cyclopropanecarbonyl)indolin-5-yl)-5-methylthiazol-2-yl)-2-(3-((5-((2-(2,6-dioxopiperidin-3-yl)-1,3-dioxoisoindolin-4-yl)amino)-3-methylpentyl)oxy)phenyl)acetamide] | < 300 nM | < 300 nM | 
Cc1sc(NC(=O)Cc2cccc(OCCC(C)(C)CCNc3cccc4c3C(=O)N(C3CCC(=O)NC3=O)C4=O)c2)nc1-c1ccc2c(c1)CCN2C(=O)C1CC1 (stereo not drawn) [Cpd. No. 42, N-(4-(1-(cyclopropanecarbonyl)indolin-5-yl)-5-methylthiazol-2-yl)-2-(3-((5-((2-(2,6-dioxopiperidin-3-yl)-1,3-dioxoisoindolin-4-yl)amino)-3,3-dimethylpentyl)oxy)phenyl)acetamide] | > 3000 nM |  | 
Cc1sc(NC(=O)Cc2cccc(OCCN(C)CCNc3cccc4c3C(=O)N(C3CCC(=O)NC3=O)C4=O)c2)nc1-c1ccc2c(c1)CCN2C(=O)C1CC1 (stereo not drawn) [Cpd. No. 44, N-(4-(1-(cyclopropanecarbonyl)indolin-5-yl)-5-methylthiazol-2-yl)-2-(3-(2-((2-((2-(2,6-dioxopiperidin-3-yl)-1,3-dioxoisoindolin-4-yl)amino)ethyl)(methyl)amino)ethoxy)phenyl)acetamide] | < 300 nM | < 300 nM | 
Cc1sc(NC(=O)Cc2cccc(OCCC(C)CCOc3cccc4c3C(=O)N(C3CCC(=O)NC3=O)C4=O)c2)nc1-c1ccc2c(c1)CCN2C(=O)C1CC1 (stereo not drawn) [Cpd. No. 47, N-(4-(1-(cyclopropanecarbonyl)indolin-5-yl)-5-methylthiazol-2-yl)-2-(3-((5-((2-(2,6-dioxopiperidin-3-yl)-1,3-dioxoisoindolin-4-yl)oxy)-3-methylpentyl)oxy)phenyl)acetamide] | 300 to 3000 nM | 300 to 3000 nM | 
Cc1sc(NC(=O)Cc2cccc(OCCC(C)(C)CCOc3cccc4c3C(=O)N(C3CCC(=O)NC3=O)C4=O)c2)nc1-c1ccc2c(c1)CCN2C(=O)C1CC1 (stereo not drawn) [Cpd. No. 48, N-(4-(1-(cyclopropanecarbonyl)indolin-5-yl)-5-methylthiazol-2-yl)-2-(3-((5-((2-(2,6-dioxopiperidin-3-yl)-1,3-dioxoisoindolin-4-yl)oxy)-3,3-dimethylpentyl)oxy)phenyl)acetamide] | > 3000 nM | 300 to 3000 nM | 
Cc1sc(NC(=O)Cc2cccc(OCCC(C)(C)CCNc3ccc4c(c3)C(=O)N(C3CCC(=O)NC3=O)C4=O)c2)nc1-c1ccc2c(c1)CCN2C(=O)C1CC1 (stereo not drawn) [Cpd. No. 51, N-(4-(1-(cyclopropanecarbonyl)indolin-5-yl)-5-methylthiazol-2-yl)-2-(3-((5-((2-(2,6-dioxopiperidin-3-yl)-1,3-dioxoisoindolin-5-yl)amino)-3,3-dimethylpentyl)oxy)phenyl)acetamide] | < 300 nM | < 300 nM | 
Cc1sc(NC(=O)Cc2cccc(OCCCCNc3cccc4c3C(=O)N(C3CCC(=O)NC3=O)C4=O)c2)nc1-c1ccc2c(c1)CCN2C(=O)C1CC1 (stereo not drawn) [Cpd. No. 65, N-(4-(1-(cyclopropanecarbonyl)indolin-5-yl)-5-methylthiazol-2-yl)-2-(3-(4-((2-(2,6-dioxopiperidin-3-yl)-1,3-dioxoisoindolin-4-yl)amino)butoxy)phenyl)acetamide] | < 300 nM | < 300 nM | 0.12 µM
Cc1sc(NC(=O)Cc2cccc(OCCCCCCNc3cccc4c3C(=O)N(C3CCC(=O)NC3=O)C4=O)c2)nc1-c1ccc2c(c1)CCN2C(=O)C1CC1 (stereo not drawn) [Cpd. No. 66, N-(4-(1-(cyclopropanecarbonyl)indolin-5-yl)-5-methylthiazol-2-yl)-2-(3-((6-((2-(2,6-dioxopiperidin-3-yl)-1,3-dioxoisoindolin-4-yl)amino)hexyl)oxy)phenyl)acetamide] | 300 to 3000 nM | < 300 nM | 0.16 µM
CC(=O)N1CCc2cc(-c3nc(NC(=O)Cc4cccc(OCCCCCNc5cccc6c5C(=O)N(C5CCC(=O)NC5=O)C6=O)c4)sc3C)ccc21 (stereo not drawn) [Cpd. No. 67, N-(4-(1-acetylindolin-5-yl)-5-methylthiazol-2-yl)-2-(3-((5-((2-(2,6-dioxopiperidin-3-yl)-1,3-dioxoisoindolin-4-yl)amino)pentyl)oxy)phenyl)acetamide] | < 300 nM | < 300 nM | 0.75 µM
Cc1sc(NC(=O)Cc2cccc(OCCOCCNc3cccc4c3C(=O)N(C3CCC(=O)NC3=O)C4)c2)nc1-c1ccc2c(c1)CCN2C(=O)C1CC1 (stereo not drawn) [Cpd. No. 81, N-(4-(1-(cyclopropanecarbonyl)indolin-5-yl)-5-methylthiazol-2-yl)-2-(3-(2-(2-((2-(2,6-dioxopiperidin-3-yl)-3-oxoisoindolin-4-yl)amino)ethoxy)ethoxy)phenyl) acetamide] |  |  | > 30 µM
Cc1sc(NC(=O)Cc2cccc(OCCC(C)CCNc3ccc4c(c3)C(=O)N(C3CCC(=O)NC3=O)C4=O)c2)nc1-c1ccc2c(c1)CCN2C(=O)C1CC1 (stereo not drawn) [compound 50, N-(4-(1-(cyclopropanecarbonyl)indolin-5-yl)-5-methylthiazol-2-yl)-2-(3-((5-((2-(2,6-dioxopiperidin-3-yl)-1,3-dioxoisoindolin-5-yl)amino)-3-methylpentyl)oxy)phenyl)acetamide] | 300 to 3000 nM | 300 to 3000 nM | 
Cc1ncccc1C(=O)N1CCc2cc(-c3nc(NC(=O)Cc4cccc(OCCCCCNc5cccc6c5C(=O)N(C5CCC(=O)NC5=O)C6=O)c4)sc3C)ccc21 (stereo not drawn) [compound 83, 2-(3-((5-((2-(2,6-dioxopiperidin-3-yl)-1,3-dioxoisoindolin-4-yl)amino)pentyl)oxy)phenyl)-N-(5-methyl-4-(1-(2-methylnicotinoyl)indolin-5-yl)thiazol-2-yl)acetamide] |  |  | 0.045 µM
Cc1cnccc1C(=O)N1CCc2cc(-c3nc(NC(=O)Cc4cccc(OCCCCCNc5cccc6c5C(=O)N(C5CCC(=O)NC5=O)C6=O)c4)sc3C)ccc21 (stereo not drawn) [compound 84, 2-(3-((5-((2-(2,6-dioxopiperidin-3-yl)-1,3-dioxoisoindolin-4-yl)amino)pentyl)oxy)phenyl)-N-(5-methyl-4-(1-(3-methylisonicotinoyl)indolin-5-yl)thiazol-2-yl)acetamide] |  |  | 0.046 µM
Cc1ccncc1C(=O)N1CCc2cc(-c3nc(NC(=O)Cc4cccc(OCCCCCNc5cccc6c5C(=O)N(C5CCC(=O)NC5=O)C6=O)c4)sc3C)ccc21 (stereo not drawn) [compound 85, 2-(3-((5-((2-(2,6-dioxopiperidin-3-yl)-1,3-dioxoisoindolin-4-yl)amino)pentyl)oxy)phenyl)-N-(5-methyl-4-(1-(4-methylnicotinoyl)indolin-5-yl)thiazol-2-yl)acetamide] |  |  | 0.047 µM
Cc1cccnc1C(=O)N1CCc2cc(-c3nc(NC(=O)Cc4cccc(OCCCCCNc5cccc6c5C(=O)N(C5CCC(=O)NC5=O)C6=O)c4)sc3C)ccc21 (stereo not drawn) [compound 86, 2-(3-((5-((2-(2,6-dioxopiperidin-3-yl)-1,3-dioxoisoindolin-4-yl)amino)pentyl)oxy)phenyl)-N-(5-methyl-4-(1-(3-methylpicolinoyl)indolin-5-yl)thiazol-2-yl)acetamide] |  |  | 0.072 µM
